B1: MazE-mt3: full-length antitoxin of the M. tb MazEF-mt3 toxin–antitoxin pair, recombinantly expressed (protein)
chain: MKTAISLPDETFDRVSRRASELGMSRSEFFTKAAQRYLHELDAQLLTGQIDRALESIHGTDEAEALAVANAYRVLETMDDEW
modifications: left off: His tag, end not stated, state not stated
notes: full-length antitoxin of the M. tb MazEF-mt3 toxin–antitoxin pair, recombinantly expressed

Tested on: MazF-mt3
Type: biochemical, Mycobacterium tuberculosis
Conditions: FAM-labeled 13-nt RNA substrate, 37 °C, 30 min

| Molecule | reduction of the cleavage of the WT MazF-mt3 enzyme (Figure 4A) [%] | suppression of the cleavage activity of MazF-mt3 (20 mM Tris-HCl pH 8.0, 150 mM NaCl, urea-PAGE, Figure S8) |
| --- | --- | --- |
| MazE-mt3 α3–α4: peptide corresponding to the last two helices (α3-α4, Leu46-Trp82) of MazE-mt3; cocrystallized with MazF-mt3 (PDB 8ZWS) (LTGQIDRALESIHGTDEAEALAVANAYRVLETMDDEW) | 15 |  |
| B1 |  | fully suppress |

Source: paper PMC11394972 (International Journal of Molecular Sciences, 2024)
